For the data set the following is noted: for Normal melting temperature: Crystal 1, DTA.

Structures are written as SMILES. ± gives the expanded uncertainty stated by the source.

For 5 molecules, Normal melting temperature and Triple point temperature results are on record in the NIST ThermoML archive (doi:10.1016/j.tca.2017.12.015).

With `NCC(=O)O` [2-aminoacetic acid], the Normal melting temperature is 254.70 ± 2 °C.

Consider `O=C[C@H](O)[C@@H](O)[C@H](O)[C@H](O)CO` [D-glucose], for which the Normal melting temperature was determined as 162.10 ± 2 °C.

With `OC[C@@H](O)[C@@H](O)[C@H](O)[C@@H](O)CO` [D-sorbitol], the Normal melting temperature is 99.70 ± 2 °C.

As for `OC[C@H]1O[C@@](CO)(O[C@H]2O[C@H](CO)[C@@H](O)[C@H](O)[C@H]2O)[C@@H](O)[C@@H]1O` [D-sucrose], the Normal melting temperature was found to be 190.90 ± 2 °C.

Consider `Cn1c(=O)c2c(ncn2C)n(C)c1=O` [caffeine], for which the Normal melting temperature was 236.20 ± 2 °C. For the same molecule, where the note is “Crystal 2, DSC”, the Triple point temperature worked out at 432.55 ± 6 K.
